Data reported in paper PMC8428848, “Ancient role of sulfakinin/cholecystokinin-type signalling in inhibitory regulation of feeding processes revealed in an echinoderm” (eLife, 2021).
Where “and” joins values, the source holds several entries; their conditions need not be identical. Identical values can stand only once. Square brackets hold non-standard residues; d marks the D form. Peptide text beside a SMILES is read from it. sY = N[C@@H](Cc1ccc(OS(=O)(=O)O)cc1)C(=O)O; pGlu = O=C1CC[C@@H](C(=O)O)N1

How the values were obtained:
[1] = test system: CHO-K1 cells transfected with an empty vector; assay: Control: CHO-K1 aequorin (G5A) cells transfected with empty pcDNA 3.1(+) vector; type: cell-based, Chinese hamster
Text: To enable testing of ArSK/CCK1 and ArSK/CCK2 as candidate ligands for ArSK/CCKR, a full-length cDNA encoding ArSK/CCKR was synthesized by GenScript (Piscataway, NJ) and cloned into pcDNA 3.1+ vector (Invitrogen, Thermo Fisher Scientific, Waltham, MA). A partial Kozak translation initiation sequence (CACC) was introduced upstream to the start codon (ATG). CHO-K1 cells stably expressing the mitochondrial targeted calcium-sensitive bioluminescent reporter GFP-aequorin fusion protein (G5A) ([Baubet et al., 2000]) were used as a heterologous expression system for ArSK/CCKR. These cells have been used previously for neuropeptide receptor deorphanisation ([Bauknecht and Jékely, 2015]) and were generously supplied to us by Dr Gáspár Jékely (University of Exeter). The cell line was generated using the CHO-K1 cell line from Sigma-Aldrich (85051005; RRID: CVCL_0214), which is certified by the European Collection of Authenticated Cell Cultures (ECACC), and expression of the GFP-aequorin fusion protein (G5A) in the cell line was determined by functionality in displaying calcium-activated luminescence. […] Cells were cultured, co-transfected with the pcDNA 3.1+ vector containing the ArSK/CCKR cDNA sequence and plasmids encoding the promiscuous human G-protein Gα16. Then bioluminescence-based receptor assays were performed, as described previously for A. rubens luqin-type receptors ([Yañez-Guerra et al., 2018]).
The peptides were diluted in distilled water and tested as candidate ligands for ArSK/CCKR at concentrations ranging from 3 × 10^−17 to 10^−4 M. Concentration-response data were determined as a percentage of the highest response for each peptide (100% activation). EC50 values were calculated from concentration-response curves based on four to six independent transfections and averaging two to three replicates in each transfection using Prism 6.0 (RRID:SCR_002798; GraphPad software, La Jolla, CA). Cells transfected with an empty vector were used for control experiments.

[2] = test system: apical muscle preparations; assay: In vitro contraction of apical muscle preparations (organ bath); design: species or system Asterias rubens; conditions: for contracting action on apical muscle, % of the effect of 10 µM acetylcholine: highest concentration tested (1 µM), n = 20–23; for contraction of apical muscle preparations: in vitro
Experimental: Effects of peptides on preparations were tested and recorded using an isotonic transducer (MLT0015, ADInstruments Pty Ltd) connected to a bridge amplifier (FE221 Bridge Amp, ADInstruments Pty Ltd) linked to PowerLab data acquisition hardware (2/36, ADInstruments Pty Ltd). Data were collected and analysed using LabChart (RRID:SCR_017551; v8.0.7) software installed on a laptop computer (Lenovo E540, Windows 7 Professional). Stock solutions of synthetic peptides were prepared in distilled water and added to the organ bath to achieve final concentrations ranging from 0.1 nM to 1 μM. To assess the viability of preparations and to enable normalization of responses to ArSK/CCK1 or ArSK/CCK2, the starfish neuropeptide NGFFYamide (100 nM) was tested on cardiac stomach preparations and acetylcholine (10 µM) was tested on tube foot and apical muscle preparations. To assess the importance of tyrosine sulphation for peptide bioactivity, a non-sulphated analog of ArSK/CCK2 (ArSK/CCK2(ns)) was also tested on cardiac stomach (n = 5), tube foot, and apical muscle preparations (data not shown).

[3] = test system: Asterias rubens; assay: In vivo retraction of the everted cardiac stomach after injection; conditions: for cardiac stomach retraction in vivo: injection of 10 nmol (10 μl of 1 mM) into perivisceral coelom, eversion induced with 2% MgCl2 in seawater, 6 min; for reduction in the area of cardiac stomach everted: within 360 s after injection of 10 mol (10 µl 1 mM), normalized to area at T0, n = 6 (ArSK/CCK1), 6 (ArSK/CCK2), 8 (ArSK/CCK2(ns))
Experimental: Therefore, experiments were performed to investigate if ArSK/CCK1 and ArSK/CCK2 also trigger cardiac stomach retraction in A. rubens. Twenty specimens of A. rubens, which had been withheld from a food supply for 1 week, were placed in a glass tank containing 2% magnesium chloride (MgCl2; Sigma-Aldrich, Gillingham, UK) dissolved in seawater, which acts as a muscle relaxant in marine invertebrates ([Mayer, 1909]). This treatment conveniently and reproducibly causes eversion of the cardiac stomach in A. rubens, typically within a period of ~30 min ([Semmens et al., 2013]). Hamilton 75 N 10 μl syringes (Sigma-Aldrich, Gillingham, UK) were used to inject test compounds into the perivisceral coelom of animals, inserting the needle through the aboral body wall of the arms proximal to the junctions with the central disk region. Care was taken to inject neuropeptides (ArSK/CCK1, ArSK/CCK2 and ArSK/CCK2(ns)) or distilled water (control) into the perivisceral coelom and not into the cardiac stomach. All animals were first injected with 10 μl of distilled water (control) and video-recorded for 6 min. The same animals were then injected with 10 μl of 1 mM peptide (10 nmol) and video-recorded for 6 min. Static images from video recordings were captured at 30 s intervals from the time of injection. Then the two-dimensional area of everted cardiac stomach was measured from the images using the ImageJ software (version 1.0; http://rsb.info.nih.gov/ij) and normalized as a percentage of the area of cardiac stomach everted at the time of injection (T0).

[4] = test system: Asterias rubens; assay: In vivo feeding behaviour on mussels after injection; conditions: for time to touch (first contact with a mussel) / time to enclose (time to adopt a feeding posture): 10 nmol (10 µl of 1 mM) injected; for time to touch (first contact with a mussel) / time to enclose (time to adopt a feeding posture) / starfish proceeding to a feeding posture after the first touch: compared with water-injected controls; for time to enclose (time to adopt a feeding posture): p = 0.0523 ArSK/CCK1, p < 0.05 ArSK/CCK2; for starfish proceeding to a feeding posture after the first touch / number of advances to touch the mussel / number of starfish that did not initiate feeding within the 5 hr (300 min) observation period: 10 nmol injected; for starfish proceeding to a feeding posture after the first touch: Fisher's exact test; for number of advances to touch the mussel: data not shown; for number of starfish that did not initiate feeding within the 5 hr (300 min) observation period: n = 11 ArSK/CCK1, n = 19 ArSK/CCK2; for time to touch / time to enclose: individual animals
Text: Here, the same methods employed by [Tinoco et al., 2018] were used to investigate if ArSK/CCK1 and/or ArSK/CCK2 affect feeding behaviour in starfish. […] Then, starfish were fasted for 24 days and transferred to and kept individually in Plexiglas aquaria, as described previously ([Tinoco et al., 2018]). […] The time taken for starfish to make first contact with a mussel (tube feet touching the mussel or time to touch the mussel), the number of attempts to touch, as well as the time to enclose the mussel (indicated by a feeding posture) were recorded. Starfish that were feeding after 24 hr were included in data analysis and any starfish in the control or test group that had not fed on a mussel after 24 hr were discarded from data analysis.

[5] = 10 µl of 1 mM peptide injected, n = 11
[6] = feeding experiments, count of animals
[7] = feeding experiments, percentage of animals

Structure (SMILES) | luminescence response [1] | contracting action on apical muscle, % of the effect of 10 µM acetylcholine [2] | contraction of apical muscle preparations [2] | cardiac stomach retraction in vivo [3] | reduction in the area of cardiac stomach everted [3] | time to touch (first contact with a mussel) [4] | time to enclose (time to adopt a feeding posture) [4] | starfish proceeding to a feeding posture after the first touch [4] | number of advances to touch the mussel [4] | number of starfish that did not initiate feeding within the 5 hr (300 min) observation period [4] | other results
CC(C)C[C@H](NC(=O)CNC(=O)[C@H](Cc1c[nH]cn1)NC(=O)CNC(=O)[C@H](Cc1ccc(OS(=O)(=O)O)cc1)NC(=O)[C@H](CC(=O)O)NC(=O)[C@H](CC(=O)O)NC(=O)[C@@H](NC(=O)[C@H](CCCCN)NC(=O)[C@H](CO)NC(=O)[C@@H]1CCC(=O)N1)C(C)C)C(=O)N[C@@H](Cc1ccccc1)C(=O)N[C@@H](Cc1c[nH]c2ccccc12)C(N)=O [ArSK/CCK1] ([pGlu]SKVDD[sY]GHGLFW-NH2) | did not elicit luminescence responses | ~ 40% | caused contraction | triggered cardiac stomach retraction | > 50% | did not affect | only a tendency to an increased time to enclose | fewer | increased number of advances | four | Number of animals, First touch success [4, 5]: 4; Number of animals, Unsuccessful first touch [4, 5]: 7; Percentage, First touch success [4, 5]: 36 Percentage; Percentage, Unsuccessful first touch [4, 5]: 64 Percentage; time to touch ([4]; one line each, 10 µl of 1 mM peptide injected): 10 min and 16 min and 8 min and 4 min and 2 min and 23 min and 19 min and 6 min and 3 min and 22 min and 48 min; time to enclose ([4]; one line each, 10 µl of 1 mM peptide injected, observation period 300 min): 215 min and 29 min and 4 min and 24 min and 10 min and 6 min and 144 min
CC(C)C[C@H](NC(=O)CNC(=O)[C@H](Cc1ccccc1)NC(=O)CNC(=O)[C@H](Cc1ccc(O)cc1)NC(=O)[C@H](CCC(N)=O)NC(=O)[C@H](CC(=O)O)NC(=O)[C@H](CC(=O)O)NC(=O)CNC(=O)CN)C(=O)N[C@@H](Cc1ccccc1)C(=O)N[C@@H](Cc1ccccc1)C(N)=O [ArSK/CCK2(ns)] (H-GGDDQYGFGLFF-NH2; N-terminus assumed) | did not elicit luminescence responses | – | no effect | did not trigger cardiac stomach retraction | no effect | – | – | – | – | – | –
CC(C)C[C@H](NC(=O)CNC(=O)[C@H](Cc1ccccc1)NC(=O)CNC(=O)[C@H](Cc1ccc(OS(=O)(=O)O)cc1)NC(=O)[C@H](CCC(N)=O)NC(=O)[C@H](CC(=O)O)NC(=O)[C@H](CC(=O)O)NC(=O)CNC(=O)CN)C(=O)N[C@@H](Cc1ccccc1)C(=O)N[C@@H](Cc1ccccc1)C(N)=O [ArSK/CCK2] (H-GGDDQ[sY]GFGLFF-NH2; N-terminus assumed) | did not elicit luminescence responses | ~ 40% | caused contraction | triggered cardiac stomach retraction | > 50% | did not affect | higher | fewer | increased number of advances | two | Number of animals, First touch success [4, 6]: 12; Number of animals, Unsuccessful first touch [4, 6]: 6; time to enclose ([4]; feeding experiments): 11.3 min and 199.3 min and 190.75 min and 21 min and 27 min and 53 min and 49 min and 10 min and 237 min and 12 min and 17 min and 300 min and 77 min and 88 min and 22 min and 50 min and 8 min and 46 min; time to touch ([4]; feeding experiments): 9 min and 6.9 min and 13.1 min and 13 min and 24 min and 49 min and 46 min and 6 min and 11 min and 7 min and 14 min and 36 min and 3 min and 18 min and 45 min and 4 min and 40 min; Percentage, First touch success [4, 7]: 67%; Percentage, Unsuccessful first touch [4, 7]: 33%
